Results on 32 compounds are retold here after PubChem BioAssay AID624024 (Broad Institute, 2012).

Records with an inconclusive call do not appear. Active and inactive are the calls of the source.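 The calls were made as follows: active = fitted curve rises past 40% HDL binding increase at a concentration no higher than twice the top valid tested dose; inconclusive = no clear call, values can overlap the other calls; inactive = effects opposite to the expected rise, plus the rest.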

This test has as its target Scavenger receptor class B member 1 (Mus musculus) (UniProt Q61009). In words: modulators of Alexa488-HDL binding to SR-BI, dose response, orthogonal assay for SR-BI HDL uptake inhibitor project, cell-based, ldlA[mSR-BI] CHO, Alexa 488-HDL, powder samples, set 3 (AID 624024). Conditions: ldlA[mSR-BI] CHO cells, Alexa488-HDL binding fluorescence, 3 h; for HDL binding change, positive = increase: at 35 µM (top of the series).

Sequence of Scavenger receptor class B member 1 (Mus musculus) (Q61009 whole entry, looked up): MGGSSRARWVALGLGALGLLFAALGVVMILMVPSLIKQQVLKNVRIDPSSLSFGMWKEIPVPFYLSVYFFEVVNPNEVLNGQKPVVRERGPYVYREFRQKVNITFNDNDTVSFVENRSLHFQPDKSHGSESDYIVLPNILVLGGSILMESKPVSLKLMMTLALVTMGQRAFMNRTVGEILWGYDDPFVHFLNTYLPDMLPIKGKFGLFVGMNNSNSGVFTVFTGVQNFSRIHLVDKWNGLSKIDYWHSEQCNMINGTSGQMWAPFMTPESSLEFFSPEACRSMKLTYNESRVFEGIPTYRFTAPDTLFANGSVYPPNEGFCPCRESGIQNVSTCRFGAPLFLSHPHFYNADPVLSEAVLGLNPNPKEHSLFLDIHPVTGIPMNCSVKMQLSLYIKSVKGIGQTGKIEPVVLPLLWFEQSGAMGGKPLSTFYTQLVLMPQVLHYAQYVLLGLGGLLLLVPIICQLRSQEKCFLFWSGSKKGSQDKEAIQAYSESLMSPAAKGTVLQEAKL

In the case of `C[C@@H]1CN([C@H](C)CO)C(=O)c2cc(NC(=O)Cc3cn(C)c4ccccc34)ccc2O[C@H]1CN(C)S(=O)(=O)c1ccc(Cl)cc1`, the AC40 was 4.61 nM. On the same count and under the same terms, then `C[C@@H]1CN([C@H](C)CO)C(=O)c2cc(NC(=O)C3CCCCC3)ccc2O[C@H]1CN(C)S(=O)(=O)c1ccccc1Cl`, with 222 nM. Same read-out and setting: next, `CNC[C@@H]1Oc2ccc(NC(=O)NC(C)C)cc2C(=O)N([C@H](C)CO[Si](C)(C)C(C)(C)C)C[C@H]1C`: 3380 nM.

Take `O=C1C2C3C=CC(C3)C2C(=O)N1c1cccc(N2C(=O)C3C4C=CC(C4)C3C2=O)n1` (configuration not stated): the HDL binding change, positive = increase was 4.51% (inactive). Take `CCOc1cc2c3c(c1)C1(C(=O)N3C(C)(C)CC2C)C(C#N)=C(N)N2C(=C1C#N)Nc1ccccc12` (configuration not stated): the AC40 is 3670 nM. Still for that read-out and setting: next, `Cc1noc(C)c1S(=O)(=O)Nc1ccc2c(c1)C(=O)N([C@H](C)CO)C[C@@H](C)[C@H](CN(C)S(=O)(=O)c1ccc(Cl)cc1)O2`: 138 nM; `CC(C)NC(=O)Nc1ccc2c(c1)C(=O)N([C@@H](C)CO)C[C@H](C)[C@@H](CN(C)S(=O)(=O)c1ccc(Cl)cc1)O2`: 671 nM. Regarding `C[C@@H]1CN([C@H](C)CO)C(=O)c2cc(NC(=O)C3CCCCC3)ccc2O[C@H]1CN(C)S(=O)(=O)c1ccc(Cl)cc1`, the AC40 is 33.2 nM.

Turning to `C[C@@H]1CN([C@H](C)CO)C(=O)c2cc(NC(=O)C3CCOCC3)ccc2O[C@H]1CN(C)S(=O)(=O)c1ccc(Cl)cc1`, the AC40 is 1970 nM. `COc1ccc2c(c1)CC(C1(O)C(=O)N(C)c3ccccc31)C2=O` (configuration not stated): the HDL binding change, positive = increase is 37.2% (inactive). Take `C[C@H](C(=O)NC1CCCC1)N(C(=O)Cn1nnc(-c2ccc3c(c2)OCO3)n1)C1CCCCC1`: the AC40 was 16.7 nM. The same measure, in the same setting: next, `CC(C)NC(=O)Nc1ccc2c(c1)C(=O)N([C@@H](C)CO)C[C@H](C)[C@H](CN(C)S(=O)(=O)c1ccc(Cl)cc1)O2`: 12.1 nM. Still for that read-out and setting: then `CCCCCCC1CCC/C1=N\NC(N)=S` (configuration not stated), with 2.72 nM; and `CC(C)NC(=O)Nc1ccc2c(c1)C(=O)N([C@H](C)CO)C[C@@H](C)[C@@H](CN(C)S(=O)(=O)c1ccc(Cl)cc1)O2`, with 3690 nM. The same measure, in the same setting: then `CC(C)NC(=O)Nc1ccc2c(c1)C(=O)N([C@@H](C)CO)C[C@@H](C)[C@H](CN(C)S(=O)(=O)c1ccc(Cl)cc1)O2`, with 20.3 nM. As to `COc1c(NC(=O)C(=O)c2ccc(OCCN3CCOCC3)c3ccccc23)cc(C(C)(C)C)cc1NS(C)(=O)=O`, the AC40 is 218 nM. In the case of `CC(C)(C)OC(=O)N1CCN(c2ccc(NC(=O)c3cc([N+](=O)[O-])ccc3Cl)cc2)CC1`, the AC40 is 155 nM. For the compound `Cc1ccc(OCc2cc(C(=O)N3CCCC(O)C3)no2)cn1` (configuration not stated), the HDL binding change, positive = increase is 36% (inactive). For the compound `O=C(O)CC(C(=O)Nc1cccc(C(F)(F)F)c1)C1CCCO1` (configuration not stated), the HDL binding change, positive = increase is 64.3% (inactive).

For the compound `C[C@@H]1CN([C@H](C)CO)C(=O)c2cc(NC(=O)C3CCCCC3)ccc2O[C@H]1CN(C)S(=O)(=O)c1cccc(Cl)c1`, the AC40 was 3040 nM.

On to `CC(C)NC(=O)Nc1cccc2c1O[C@@H](CN(C)S(=O)(=O)c1ccc(Cl)cc1)[C@H](C)CN([C@H](C)CO)C2=O`, for which the AC40 was 544 nM. Same read-out and setting: then `CC(C)CN(C(=O)COC(=O)C12CC3CC(CC(O)(C3)C1)C2)C1CCS(=O)(=O)C1` (configuration not stated), with 772 nM; and `C[C@@H]1CN([C@H](C)CO)C(=O)c2cc(NC(=O)Nc3ccc(F)cc3)ccc2O[C@H]1CN(C)S(=O)(=O)c1ccc(Cl)cc1`, with 33.2 nM. Same read-out and setting: next, `C[C@@H]1CN([C@H](C)CO)C(=O)c2cc(NC(=O)C3CCCCC3)ccc2O[C@H]1CN(C)C(=O)c1ccc(Cl)cc1`: 17500 nM. The same measure, in the same setting: then `CC(C)NC(=O)Nc1ccc2c(c1)C(=O)N([C@@H](C)CO)C[C@@H](C)[C@@H](CN(C)S(=O)(=O)c1ccc(Cl)cc1)O2`, with 57.6 nM. In the case of `C=CCOC(=O)N(C)C[C@@H]1Oc2ccc(NC(=O)NC(C)C)cc2C(=O)N([C@H](C)CO[Si](C)(C)C(C)(C)C)C[C@H]1C`, the HDL binding change, positive = increase was 90.1% (inactive). For the compound `CC(=O)Nc1ccc(Cl)c(C(=O)Nc2ccc(N3CCN(C(=O)OC(C)(C)C)CC3)cc2)c1`, the AC40 was 16.6 nM. Same read-out and setting: next, `COCC(=O)N1CCc2cc(-c3csc(NC(=O)c4cc(OC)cc(OC)c4)n3)ccc21`: 19.9 nM; `C[C@@H]1CN([C@H](C)CO)C(=O)c2cc(NC(=O)Cc3cn(C)c4ccccc34)ccc2O[C@H]1CN(C)S(=O)(=O)c1ccc(F)cc1`: 1.76 nM. As for `C[C@@H]1CN([C@H](C)CO[Si](C)(C)C(C)(C)C)C(=O)c2cc(NC(=O)C3CCCCC3)ccc2O[C@H]1CN(C)C(=O)c1ccc(Cl)cc1`, the AC40 was 6330 nM. As for `C=CCOC(=O)N(C)C[C@@H]1Oc2ccc(NC(=O)OCC3c4ccccc4-c4ccccc43)cc2C(=O)N([C@H](C)CO)C[C@H]1C`, the AC40 is 1870 nM. Same read-out and setting: next, `C=CCOC(=O)N(C)C[C@@H]1Oc2ccc(N)cc2C(=O)N([C@H](C)CO[Si](C)(C)C(C)(C)C)C[C@H]1C`: 3760 nM.
